Results reported in article PMC10539501 (Nature Communications, 2023).
Starred links: 1 amine or outer side, 2 acyl side, 3 side chain; linkers in the order of their positions; H or OH if unused. Non-standard residues stand in square brackets, D forms with d. Residues, ends and D or L forms follow the SMILES beside them. X13 = CC[C@H](C)[C@H](NC(=S)[C@@H]1CCCN1[*:1])C(=O)[*:2]; X17 = CC[C@H](C)[C@H](N[*:1])C(=S)N1CCC[C@H]1C(=O)[*:2]; AlaΨ(CSNH)Ala = C[C@H](NC(=S)[C@H](C)N[*:1])C(=O)[*:2]; X11 = CC[C@H](C)[C@H](N[*:1])C(=S)N[C@@H](C)C(=O)[*:2]; X2 = CC(C)C[C@H](NC(=S)[C@@H](CC(C)C)N[*:1])C(=O)[*:2]; X9 = O=C([C@@H]1CCCN1C(=S)[C@H](Cc1ccccc1)N[*:1])[*:2]; X14 = C[C@H](N[*:1])C(=S)N[C@@H](Cc1ccccc1)C(=O)[*:2]; X15 = CC(C)C[C@@H](NC(=S)[C@H]1CCCN1[*:1])C(=O)[*:2]; X19 = CC(C)C[C@H](NC(=S)[C@@H]1CCCN1[*:1])C(=O)[*:2]; X18 = C[C@@H](N[*:1])C(=S)N1CCC[C@H]1C(=O)[*:2]

Legend:
physchem = conditions: pH 7.4
[1] = type: physicochemical
[2] = PAMPA passive permeability; type: in vitro ADME;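 further: passive permeability across an artificial membrane in 96-well pre-coated PAMPA plates, which lack transporters and efflux systems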
Experimental: Encouraged by this, the passive permeability of the analogs was evaluated using an artificial membrane (PAMPA), which measures permeability of compounds in the absence of transporters and efflux systems[32].
96-well BD Corning® pre-coated PAMPA plates were used following the supplier’s protocol, details in Supplementary Information.

in vitro = in vitro ADME, human; conditions: human; for Papp A→B: Caco-2, Papp A-B avg
Experimental: (§1) The Caco-2 cell (HTB-37^TM from ATCC, procured from NCCS, Pune) monolayer was washed and pre-incubated at 37 °C and 5% CO2 for 30 min with HBSS-HEPES buffer containing 1% DMSO prior to experimentation. The assay was performed 21 days post-seeding of cells. TEER values were measured before starting and after the completion of the assay. Acceptor and donor well concentrations of the peptides and controls were assessed through LC-MS/MS.

Caco-2 cells = assay: in vitro; type: in vitro ADME, human; conditions: Caco-2
Experimental: as §1
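Wherever Papp A-B + Elacridar avg is given: Caco-2 monolayers used 21 days after seeding in HBSS-HEPES buffer with 1% DMSO, donor and acceptor levels quantified by LC-MS/MS, TEER checked before and after.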
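Wherever Papp A-B avg (second block) is given: Caco-2 monolayers used 21 days after seeding in HBSS-HEPES buffer with 1% DMSO, donor and acceptor levels quantified by LC-MS/MS, TEER checked before and after.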
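Wherever Papp A-B set 1 (second block) is given: Caco-2 monolayers used 21 days after seeding in HBSS-HEPES buffer with 1% DMSO, donor and acceptor levels quantified by LC-MS/MS, TEER checked before and after.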
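Wherever Papp A-B set 2 (second block) is given: Caco-2 monolayers used 21 days after seeding in HBSS-HEPES buffer with 1% DMSO, donor and acceptor levels quantified by LC-MS/MS, TEER checked before and after.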

| logD (physchem) | % solubility [1] | Papp ([2]; Pe Avg) | SMILES | also measured |
| --- | --- | --- | --- | --- |
| -1.76 | – | – | C[C@@H](C(=O)O)N(C)C(=O)[C@@H](N)Cc1ccccc1 [4b] | – |
| 0.28 | 93% | 0.4 ×10⁻⁶ cm/s | CC[C@H](C)[C@@H]1NC(=O)[C@@H]2CCCN2C(=O)[C@H]([C@@H](C)CC)NC(=O)[C@@H]2CCCN2C(=O)[C@H](Cc2ccccc2)NC(=O)[C@H](C)NC(=S)[C@H](C)NC1=O [11b] (cyclo(FPIPI[AlaΨ(CSNH)Ala])) | Papp ([2]; Pe (PAMPA vs logD7.4)): 0.42 ×10⁻⁶ cm/s |
| 0.37 | 76% | 1.1 ×10⁻⁶ cm/s | CC[C@H](C)[C@@H]1NC(=O)[C@@H]2CCCN2C(=S)[C@H]([C@@H](C)CC)NC(=O)[C@@H]2CCCN2C(=O)[C@H](Cc2ccccc2)NC(=O)[C@H](C)NC(=O)[C@H](C)NC1=O [11f] (cyclo(AAFP[X17]I)) | – |
| 0.33 | 85% | 0.4 ×10⁻⁶ cm/s | CC[C@H](C)[C@@H]1NC(=O)[C@@H]2CCCN2C(=O)[C@H]([C@@H](C)CC)NC(=O)[C@@H]2CCCN2C(=S)[C@H](Cc2ccccc2)NC(=O)[C@H](C)NC(=O)[C@H](C)NC1=O [11d] (cyclo(AA[X9]IPI)) | – |
| 0.29 | 93% | 0.3 ×10⁻⁶ cm/s | CC[C@H](C)[C@@H]1NC(=S)[C@@H]2CCCN2C(=O)[C@H]([C@@H](C)CC)NC(=O)[C@@H]2CCCN2C(=O)[C@H](Cc2ccccc2)NC(=O)[C@H](C)NC(=O)[C@H](C)NC1=O [11g] (cyclo(AAFPI[X13])) | Papp ([2]; Pe (PAMPA vs logD7.4)): 0.35 ×10⁻⁶ cm/s |
| -0.79 | – | – | CSCC[C@H](NC(=S)[C@@H](N)Cc1ccccc1)C(=O)O [6a] | – |
| -0.65 | – | – | N[C@@H](Cc1ccccc1)C(=O)N[C@@H](Cc1c[nH]c2ccccc12)C(=O)O [compound 7] (H-Phe-Trp-OH) | – |
| 0.43 | 76% | 1 ×10⁻⁶ cm/s | CC[C@H](C)[C@@H]1NC(=O)[C@@H]2CCCN2C(=O)[C@H]([C@@H](C)CC)NC(=O)[C@@H]2CCCN2C(=O)[C@H](Cc2ccccc2)NC(=S)[C@H](C)NC(=O)[C@H](C)NC1=O [11c] (cyclo(A[X14]PIPI)) | – |
| -2.14 | – | – | CN(C(=O)[C@@H](N)Cc1ccccc1)[C@@H](CCC(=O)O)C(=O)O [2b] | – |
| -1.95 | – | – | CN(C(=O)[C@@H](N)Cc1ccccc1)[C@@H](CCCCN)C(=O)O [1b] | – |
| -0.92 | – | – | CC(C)[C@H](NC(=S)[C@@H](N)Cc1ccccc1)C(=O)O [5a] | – |
| 1.34 | 69% | 4.4 ×10⁻⁶ cm/s | CC(C)C[C@@H]1NC(=O)[C@@H](CC(C)C)NC(=O)[C@H]2CCCN2C(=O)[C@H](CC(C)C)NC(=S)[C@@H](CC(C)C)NC(=O)[C@H](CC(C)C)NC(=O)[C@@H]2CCCN2C(=O)[C@@H](C)NC1=O [12a] (cyclo(L[dA]PL[X2][dP][dL])) | – |
| 0.55 | 74% | – | CC[C@H](C)[C@@H]1NC(=O)[C@@H]2CCCN2C(=O)[C@H](Cc2ccccc2)NC(=O)[C@H](C)NC(=O)[C@H](C)NC(=S)[C@H]([C@@H](C)CC)NC(=O)[C@@H]2CCCN2C1=O [11a] (cyclo(AFPIP[X11])) | Pe Avg [2]: 4.6 ×10⁻⁶ cm/s; Papp ([2]; Pe (PAMPA vs logD7.4)): 4.67 ×10⁻⁶ cm/s |
| -1.61 | – | – | N[C@@H](Cc1ccccc1)C(=S)NCC(=O)O [3a] | – |
| -2.56 | – | – | N[C@@H](Cc1ccccc1)C(=O)N[C@@H](CCC(=O)O)C(=O)O [compound 2] (H-Phe-Glu-OH) | – |
| -1.05 | – | – | CSCC[C@@H](C(=O)O)N(C)C(=O)[C@@H](N)Cc1ccccc1 [6b] | – |
| -1.41 | – | – | CSCC[C@H](NC(=O)[C@@H](N)Cc1ccccc1)C(=O)O [compound 6] (H-Phe-Met-OH) | – |

| logD (physchem) | % solubility [1] | Papp ([2]; Pe Avg) | SMILES | also measured |
| --- | --- | --- | --- | --- |
| 1.58 | 30% | 6.4 ×10⁻⁶ cm/s | CC(C)C[C@@H]1NC(=O)[C@@H](CC(C)C)NC(=O)[C@H]2CCCN2C(=O)[C@H](CC(C)C)NC(=O)[C@@H](CC(C)C)NC(=O)[C@H](CC(C)C)NC(=O)[C@@H]2CCCN2C(=S)[C@@H](C)NC1=O [12f] (cyclo(L[dL]L[dP][dL]L[X18])) | – |
| – | – | – | C[C@H]1O[C@@H](O[C@H]2[C@@H](O)C[C@H](O[C@H]3[C@@H](O)C[C@H](O[C@H]4CC[C@@]5(C)[C@H](CC[C@@H]6[C@@H]5C[C@@H](O)[C@]5(C)[C@@H](C7=CC(=O)OC7)CC[C@]65O)C4)O[C@@H]3C)O[C@@H]2C)C[C@H](O)[C@@H]1O [Digoxin, reference compound] | Papp A→B (in vitro): 0.721 ×10⁻⁶ cm/s; Papp B→A (in vitro; Caco-2, Papp B-A avg): 29.5 ×10⁻⁶ cm/s; Papp A-B + Elacridar avg (Caco-2 cells): 1.5 ×10⁻⁶ cm/s; Papp A-B avg (second block) (Caco-2 cells): 0.72 ×10⁻⁶ cm/s; Papp A-B set 1 (second block) (Caco-2 cells): 0.79 ×10⁻⁶ cm/s; Papp A-B set 2 (second block) (Caco-2 cells): 0.65 ×10⁻⁶ cm/s; Papp B-A + Elacridar avg (Caco-2 cells): 6.2 ×10⁻⁶ cm/s; Papp B-A avg (second block) (Caco-2 cells): 29.5 ×10⁻⁶ cm/s; Papp B-A set 1 (second block) (Caco-2 cells): 28.5 ×10⁻⁶ cm/s; Papp B-A set 2 (second block) (Caco-2 cells): 30.4 ×10⁻⁶ cm/s |
| 0.21 | – | – | CN(C(=O)[C@@H](N)Cc1ccccc1)[C@@H](Cc1c[nH]c2ccccc12)C(=O)O [7b] | – |
| -1.28 | – | – | CC(C)[C@H](NC(=O)[C@@H](N)Cc1ccccc1)C(=O)O [compound 5] (H-Phe-Val-OH) | – |
| 2.3 | 15% | 1.4 ×10⁻⁶ cm/s | CC(C)C[C@@H]1NC(=O)[C@@H](CC(C)C)NC(=S)[C@H]2CCCN2C(=O)[C@H](CC(C)C)NC(=O)[C@@H](CC(C)C)NC(=O)[C@H](CC(C)C)NC(=O)[C@@H]2CCCN2C(=O)[C@@H](C)NC1=O [12c] (cyclo(L[dA]PL[dL]L[X15])) | – |
| -2.22 | – | – | N[C@@H](Cc1ccccc1)C(=O)NCC(=O)O [compound 3] (H-Phe-Gly-OH) | – |
| -1.76 | – | – | C[C@H](NC(=S)[C@@H](N)Cc1ccccc1)C(=O)O [4a] | – |
| -1.45 | – | – | N[C@@H](Cc1ccccc1)C(=S)N[C@@H](CCC(=O)O)C(=O)O [2a] | – |
| -2.12 | – | – | NCCCC[C@H](NC(=S)[C@@H](N)Cc1ccccc1)C(=O)O [1a] | – |
| -1.73 | – | – | CN(CC(=O)O)C(=O)[C@@H](N)Cc1ccccc1 [3b] | – |
| 0.13 | – | – | N[C@@H](Cc1ccccc1)C(=S)N[C@@H](Cc1c[nH]c2ccccc12)C(=O)O [7a] | – |
| 0.58 | 65% | 0.8 ×10⁻⁶ cm/s | CC[C@H](C)[C@@H]1NC(=O)[C@@H]2CCCN2C(=O)[C@H]([C@@H](C)CC)NC(=S)[C@@H]2CCCN2C(=O)[C@H](Cc2ccccc2)NC(=O)[C@H](C)NC(=O)[C@H](C)NC1=O [11e] (cyclo(AAF[X13]PI)) | Papp ([2]; Pe (PAMPA vs logD7.4)): 0.83 ×10⁻⁶ cm/s |
| 1.59 | 46% | 10.2 ×10⁻⁶ cm/s | CC(C)C[C@@H]1NC(=O)[C@@H](CC(C)C)NC(=O)[C@H]2CCCN2C(=O)[C@H](CC(C)C)NC(=O)[C@@H](CC(C)C)NC(=O)[C@H](CC(C)C)NC(=S)[C@@H]2CCCN2C(=O)[C@@H](C)NC1=O [12g] (cyclo(L[dA][X19][dL]L[dP][dL])) | – |
| -0.62 | – | – | CC(C)[C@@H](C(=O)O)N(C)C(=O)[C@@H](N)Cc1ccccc1 [5b] | – |
| 1.82 | 25% | 8.9 ×10⁻⁶ cm/s | CC(C)C[C@@H]1NC(=O)[C@@H]2CCCN2C(=O)[C@@H](C)NC(=O)[C@H](CC(C)C)NC(=S)[C@@H](CC(C)C)NC(=O)[C@H]2CCCN2C(=O)[C@H](CC(C)C)NC(=O)[C@@H](CC(C)C)NC1=O [12d] (cyclo(L[dL]L[dP][X2][dA]P)) | – |
| -2.88 | – | – | NCCCC[C@H](NC(=O)[C@@H](N)Cc1ccccc1)C(=O)O [compound 1] | – |
| – | – | – | CC(C)NCC(O)COc1cccc2ccccc12 (centres unmarked) [Propranolol, reference compound] | Papp A→B (in vitro): 16.6 ×10⁻⁶ cm/s; Papp A-B avg (second block) (Caco-2 cells): 16.6 ×10⁻⁶ cm/s; Papp A-B set 1 (second block) (Caco-2 cells): 17.28 ×10⁻⁶ cm/s; Papp A-B set 2 (second block) (Caco-2 cells): 15.87 ×10⁻⁶ cm/s; Papp B-A avg (second block) (Caco-2 cells): 34.1 ×10⁻⁶ cm/s; Papp B-A set 1 (second block) (Caco-2 cells): 37.6 ×10⁻⁶ cm/s; Papp B-A set 2 (second block) (Caco-2 cells): 30.7 ×10⁻⁶ cm/s |
